# Data taken from paper PMC5572722, “Dimerization in tailoring uptake efficacy of the HSV-1 derived membranotropic peptide gH625” (Scientific Reports, 2017).
# Positions of bridges follow the written chain, without caps; N, C: chain ends. Residues, ends and D or L forms follow the SMILES beside them. Chains are numbered I, II in the order given. No end group written: not given here.
# Legend:
# [1] = Circular dichroism: helix content and θ222/θ208 ratio; assay type: physicochemical; conditions: CD, peptide 8 μM; for helix content in 20% TFE: room temperature, from MRE at 222 nm; for helix content in 20% TFE / ratio θ222/θ208 in TFE: 20% TFE; for ratio θ222/θ208 in TFE / ratio θ222/θ208 in lipids / ratio θ222/θ208 in buffer: <0.8 monomeric, >1.0 oligomeric state; for helix content in DOPG/Chol / ratio θ222/θ208 in lipids: DOPG/Chol 60/40 LUVs; for helix content in DOPG/Chol: P/L 0.05, from MRE at 222 nm; for ratio θ222/θ208 in lipids: P/L 0.05; for helix content in buffer: sodium phosphate 5 mM pH 7.4, room temperature, from MRE at 222 nm (Chakrabartty et al.)
# Excerpt: The circular dichroism (CD) analysis was used to reveal changes of the secondary structure with respect to the parent peptide in different experimental conditions (Figure 7). […] The helix content is probably underscored because oligomerization processes are taking place in this condition. The CD spectra were also obtained in presence of DOPG/Chol.
# Figure 7 Circular dichroism spectra of gH625, gH625-H7 and gH625-G7 in buffer (A), 20% TFE (B) and DOPG/Chol 60/40 (mol/mol) LUVs (C). Peptide concentration used is 8 μM in all conditions tested and the peptide/lipid ratio is 0.05 in condition C.
# The ratio of the ellipticities at 222 and 208 nm can be utilized to distinguish between monomeric and oligomeric states of helices, [49]; when the ratio θ222/θ208 is lower than 0.8, the peptide is essentially in its monomeric state, and when the ratio exceeds the value of 1.0, it is in its oligomeric state. The data reveal that in presence of TFE and of lipids, gH625 adopts an α-helical conformation with the monomer/oligomer equilibrium shifted toward the oligomeric state with a ratio θ222/θ208 of approximately 0.9 in both conditions, while in buffer the ratio decreases to 0.5 indicating a monomeric state. […] (Figure 7B,C). We repeated the experiment after centrifugation to remove eventual precipitated peptides from solution, however, the aggregates were molecular in size, and centrifugation had no effect on the spectra. The same analysis were performed on gH625-H7. The peptide adopts an α-helical conformation also in buffer, with a ratio θ222/θ208 of approximately 0.7, 0.9 and 1.2 in buffer, TFE and lipids.
# CD spectra were recorded in a 1.0 or 0.1 cm quartz cell at room temperature using a Jasco J-715 spectropolarimeter. The spectra are an average of 3 consecutive scans from 260 to 195 nm, recorded with a band width of 3 nm, a time constant of 16 s, and a scan rate of 10 nm/min. Spectra were recorded and corrected for the background contributions by substracting blank samples. Mean residue ellipticities (MRE) were calculated using the expression MRE = Obsd/(lcn), where Obsd is the ellipticity measured in millidegrees, l is the path length of the cell in cm, c is the peptide concentration in mol/l, and n is the number of amino acid residues in the peptide. The peptide concentration was 8 μM both in buffer (sodium phosphate 5 mM pH 7.4) and at different percentages of TFE. Peptide samples in DOPG/Chol (60/40 mol/mol) were prepared using the following protocol[32]: all peptides were first dissolved in TFE; immediately after preparation, the peptide solution was added to an equal volume of a chloroform/methanol solution containing the appropriate lipid concentration; solutions were dried with a nitrogen gas stream and lyophilized overnight; the dry samples were rehydrated with buffer to yield a final peptide concentration of 8 μM with a P/L ratio of 0.05 and extruded. The percentage of helix was calculated from measurements of their mean residue ellipticity at 222 nm[47]. We used [ϑ]222 values of 0 and −40.000(1–2.5/n) deg cm^2 dmol^−1 per amino acid residue for 0% and 100% helicity; n is the number of amino acid residues.
# [2] = Peptide aggregation, Thioflavin T (ThT) fluorescence; assay type: physicochemical; conditions: ThT 25 μM, 0.1 mM DOPG/Chol 60/40 LUVs, 100 mM NaCl, 10 mM Tris–HCl pH 7.4, 25 °C
# Experimental: Figure 4 Panel A reports the quenching of tryptophan by acrylamide. Stern-Volmer plots of acrylamide quenching of gH625, gH625-H7, gH625-G7 in buffer (closed symbols) and in LUVs composed of DOPG/Chol 60/40 (mol/mol) (open symbols). Peptide concentration is 4 μM. Panel B reports the […] as a function of the peptide/lipid ratio of gH625, gH625-H7, gH625-G7 in buffer (closed symbols) and in 0.1 mM LUVs composed of DOPG/Chol 60/40 (mol/mol) (open symbols).
# The three peptides are not aggregated in buffer as evidenced by the fact that the fluorescence remained unaltered after the addition of the peptides (see closed symbols). On the contrary, they all caused a progressive aggregation in LUVs as the fluorescence change increased dramatically.
# Peptide aggregation was monitored using ThioflavinT (ThT), which combines rapidly with aggregated peptides producing a new excitation maximum at 450 nm (slit width, 5 nm) and an enhanced emission at 482 nm (slit width, 5 nm)[43]. This experiment was conducted in LUVs (final phospholipid concentration of 0.1 mM) and buffer containing 25 μM ThT in 100 mM NaCl, 10 mM Tris–HCl, pH 7.4. Fluorescence was measured before and after the addition of peptides. In particular, we tested the following peptide concentrations 0.005, 0.01, 0.015, 0.02, 0.03, 0.04, 0.05 and 0.07 mM at 25 °C. Aggregation (A) was determined according to the following equation7 %A=(Ff−F0)/(Fmax−F0)×100 where Ff is the value of fluorescence after peptide addition, F0 the initial fluorescence in the absence of peptide and Fmax is the fluorescence maximum obtained immediately after peptide addition. Kinetic data were obtained at a concentration of 4 μM.
molecule,measurement,setting,value
CC[C@H](C)[C@H](NC(=O)[C@H](CC(C)C)NC(=O)[C@H](C)NC(=O)[C@H](CC(N)=O)NC(=O)[C@H](Cc1ccc(O)cc1)NC(=O)[C@H](Cc1c[nH]cn1)NC(=O)[C@H](C)NC(=O)[C@H](Cc1c[nH]c2ccccc12)NC(=O)[C@H](CCCNC(=N)N)NC(=O)[C@@H](NC(=O)[C@H](CC(C)C)NC(=O)[C@@H](NC(=O)[C@H](CO)NC(=O)[C@H](C)NC(=O)[C@H](CC(C)C)NC(=O)CNC(=O)[C@@H](N)Cc1c[nH]cn1)[C@@H](C)O)[C@@H](C)O)C(=O)N[C@@H](CCCNC(=N)N)C(=O)N[C@@H](C)C(=O)N[C@@H](Cc1ccccc1)C(=O)NCC(=O)NCC(=O)NCC(=O)N[C@@H](CCCCN)C(=O)N[C@@H](CCCCN)C(=O)N[C@@H](CCCCN)C(=O)N[C@@H](CCCCN)C(N)=O [gH625-G7] (H-HGLASTLTRWAHYNALIRAFGGGKKKK-NH2),helix content in 20% TFE,[1],36%
same,ratio θ222/θ208 in TFE,[1],0.7
same,helix content in DOPG/Chol,[1],55%
same,ratio θ222/θ208 in lipids,[1],1.0
same,helix content in buffer,[1],7%
same,peptide aggregation in LUVs,[2],oligomerize significantly
I: HGLASTLTRWAHYNALIRAFGCGKKKK-NH2 / II: HGLASTLTRWAHYNALIRAFGCGKKKK-NH2 (disulfide I:22-II:22) [gH625-H7],helix content in 20% TFE,[1],approximately 20%
same,ratio θ222/θ208 in TFE,[1],approximately 0.9
same,ratio θ222/θ208 in lipids,[1],~1.2
same,ratio θ222/θ208 in buffer,[1],approximately 0.7
same,helix content in buffer,[1],8%
same,peptide aggregation in LUVs,[2],oligomerize significantly
CC[C@H](C)[C@H](NC(=O)[C@H](CC(C)C)NC(=O)[C@H](C)NC(=O)[C@H](CC(N)=O)NC(=O)[C@H](Cc1ccc(O)cc1)NC(=O)[C@H](Cc1c[nH]cn1)NC(=O)[C@H](C)NC(=O)[C@H](Cc1c[nH]c2ccccc12)NC(=O)[C@H](CCCNC(=N)N)NC(=O)[C@@H](NC(=O)[C@H](CC(C)C)NC(=O)[C@@H](NC(=O)[C@H](CO)NC(=O)[C@H](C)NC(=O)[C@H](CC(C)C)NC(=O)CNC(=O)[C@@H](N)Cc1c[nH]cn1)[C@@H](C)O)[C@@H](C)O)C(=O)N[C@@H](CCCNC(=N)N)C(=O)N[C@@H](C)C(=O)N[C@@H](Cc1ccccc1)C(N)=O [gH625] (H-HGLASTLTRWAHYNALIRAF-NH2),helix content in 20% TFE,[1],22%
same,ratio θ222/θ208 in TFE,[1],approximately 0.9
same,helix content in DOPG/Chol,[1],37%
same,ratio θ222/θ208 in lipids,[1],approximately 0.9
same,ratio θ222/θ208 in buffer,[1],0.5
same,helix content in buffer,[1],5%
same,peptide aggregation in LUVs,[2],lower aggregation at low peptide/lipid ratio
